19 compounds from patent publication US12503454B2, “LPA receptor antagonists and uses thereof” (Gilead Sciences, Inc., priority 2021, dated 2025) can be followed below.

Structures are written as SMILES.

For this experiment, the target named is human LPAR1 (Homo sapiens, UniProt Q92633). Put plainly: LPAR1 intracellular calcium mobilization assay (antagonist mode, FLIPR). In kind it is cell-based. The settings on record: CHO-K1 EDG2 cells expressing human LPAR1; test compound 0.5 nM to 10 μM pre-incubated 60 minutes at 37° C., then LPA 18:2 at EC80 concentration (100 nM). The method, then: In vitro LPAR1 activity was measured in an intracellular calcium mobilization assay. CHO-K1 EDG2 cells (DiscoverX cat #93-0644C2) expressing human LPAR1 (NM_001401.3) were seeded in a total volume of 25 μL of Dulbecco's Modification of Eagle's Medium (DMEM) with 10% Fetal Bovine Serum, 1× PenStrepGlutamine, 300 μg/ml Hygromycin, and 800 μg/ml G418 into 384-well tissue culture plate (Grenier #781091) at 15,000 cells/well and incubated at 37° C. overnight. Prior to testing, 25 μL Calcium Loading Dye Component A (FLIPR Calcium 6 Assay Kit Molecular Device # R8190) and 2.5 mM Probenecid (Invitrogen # P36400, prepared fresh) in Hank's Balanced Salt Solution (Corning #21-023-CV), 20 mM HEPES (Corning #25-060-CI), 0.1% Bovine Serum Albumin (Sigma-Aldrich # A7906-500G) was add to the cells for 60 minutes at 37° C.
Agonist dose curves of LPA 18:2 (Avanti Polar Lipids cat #857138, 0.5 nM to 10 μM) were recorded to determine the LPA 18:2 EC80 for subsequent antagonist assays. For agonist dose curves, cells were removed from the incubator 2 hours after dye loading and transferred to the FLIPR Tetra instrument (Molecular Devices, San Jose, CA). Calcium mobilization was monitored for 5 min and 10 μL 6×LPA in HBSS/20 mM Hepes/0.1% bovine serum albumin (BSA) was added to the cells 5 seconds into the assay.
To determine the LPAR1 antagonist activity of test compounds, cells were pre-incubated with test compound at a dose range of 0.5 nM to 10 μM, followed by LPA at EC80 concentration (100 nM). After dye loading, cells were removed from the incubator and 0.3 μL of 200× antagonist was added. Cells were incubated for 60 minutes at 37° C. Antagonist activity was measured on a FLIPR Tetra. Calcium mobilization was monitored for 3.5 minutes and 10 μL 6×EC80 LPA in HBSS, 20 mM HEPES, and 0.1% BSA was added to the cells 5 seconds into the assay. Signal amplitude (Maximum minus minimum) values were plotted against log10 of antagonist concentration using Dose Response Tool (Gilead Sciences Inc.) to determine […].
To assess the antagonistic potential of exemplified compounds […] were determined for Compounds 1 to 66 in the LPAR1 calcium mobilization assay. The compound numbers correspond to the compound numbers in Examples 1 to 18. N/A=not available.

Chain of human LPAR1 (Q92633 whole entry): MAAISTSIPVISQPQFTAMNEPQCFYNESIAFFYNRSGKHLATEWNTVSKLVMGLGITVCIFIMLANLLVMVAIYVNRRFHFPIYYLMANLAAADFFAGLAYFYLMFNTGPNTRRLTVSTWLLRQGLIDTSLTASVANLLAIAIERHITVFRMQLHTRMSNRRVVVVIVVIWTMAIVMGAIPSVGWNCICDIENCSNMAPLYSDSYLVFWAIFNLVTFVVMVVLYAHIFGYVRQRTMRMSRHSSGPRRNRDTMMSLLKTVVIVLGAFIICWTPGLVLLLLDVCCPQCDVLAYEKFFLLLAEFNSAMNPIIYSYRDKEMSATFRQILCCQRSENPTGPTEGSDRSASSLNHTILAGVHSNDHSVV

What is called EC50 is the concentration at which the effect is half-maximal. On to `C[C@@H](OC(=O)Nc1c(-c2ccc(C(=O)Nc3cc(Cl)nc(C(F)(F)F)c3)cn2)nnn1C)c1cc(F)cnc1F` [Compound 43, (R)-1-(2,5-difluoro-pyridin-3-yl)ethyl (4-(5-((2-chloro-6-(trifluoromethyl)-pyridin-4-yl)-carbamoyl)pyridin-2-yl)-1-methyl-1H-1,2,3-triazol-5-yl)-carbamate], for which the EC50 amounted to 9 nM.

As to `C[C@@H](OC(=O)Nc1c(-c2ccc(C(=O)NC3CC(c4ccccc4)C3)cn2)nnn1C)c1cc(F)cnc1F` (stereo partly drawn) [Compound 44, (R)-1-(2,5-difluoro-pyridin-3-yl)ethyl (1-methyl-4-(5-((3-phenylcyclo-butyl)carbamoyl)-pyridin-2-yl)-1H-1,2,3-triazol-5-yl)-carbamate], the EC50 amounted to 273 nM.

Turning to `C[C@@H](OC(=O)Nc1c(-c2ccc(C(=O)Nc3ccnc(C(F)(F)F)c3)cn2)nnn1C)c1cc(F)cnc1Cl` [Compound 45, (R)-1-(2-chloro-5-fluoropyridin-3-yl)ethyl (1-methyl-4-(5-((2-(trifluoromethyl)pyridin-4-yl)carbamoyl)pyridin-2-yl)-1H-1,2,3-triazol-5-yl)carbamate], the EC50 is less than 4.6 nM.

For the compound `C[C@@H](OC(=O)Nc1c(-c2ccc(C(=O)NC34CC(F)(C3)C4)cn2)nnn1C)c1cc(F)cnc1Cl` [Compound 46, (R)-1-(2-chloro-5-fluoropyridin-3-yl)ethyl (4-(5-((3-fluorobicyclo-[1.1.1]pentan-1-yl)carbamoyl)-pyridin-2-yl)-1-methyl-1H-1,2,3-triazol-5-yl)-carbamate], the concentration giving a half-maximal response (EC50) is 88.1 nM.

For the compound `C[C@@H](OC(=O)Nc1c(-c2ccc(C(=O)NC34CC(C#N)(C3)C4)cn2)nnn1C)c1cc(F)cnc1Cl` [Compound 47, (R)-1-(2-chloro-5-fluoropyridin-3-yl)ethyl (4-(5-((3-cyanobicyclo-[1.1.1]pentan-1-yl)carbamoyl)-pyridin-2-yl)-1-methyl-1H-1,2,3-triazol-5-yl)-carbamate], the EC50 was less than 4.6 nM.

With `C[C@@H](OC(=O)Nc1c(-c2ccc(C(=O)NC34CC(C(F)F)(C3)C4)cn2)nnn1C)c1cc(F)cnc1Cl` [Compound 48, (R)-1-(2-chloro-5-fluoropyridin-3-yl)ethyl (4-(5-((3-(difluoromethyl)-bicyclo[1.1.1]-pentan-1-yl)-carbamoyl)pyridin-2-yl)-1-methyl-1H-1,2,3-triazol-5-yl)carbamate], the 50% effective concentration (EC50) stood at 80.7 nM.

In the case of `C[C@@H](OC(=O)Nc1c(-c2ccc(C(=O)Nc3ccc(C#N)cc3)cn2)nnn1C)c1cc(F)cnc1Cl` [Compound 49, (R)-1-(2-chloro-5-fluoropyridin-3-yl)ethyl (4-(5-((4-cyanophenyl)-carbamoyl)pyridin-2-yl)-1-methyl-1H-1,2,3-triazol-5-yl)carbamate], the EC50 came out at 74.3 nM.

As for `C[C@@H](OC(=O)Nc1c(-c2ccc(C(=O)Nc3ccnc(C#N)c3)cn2)nnn1C)c1cc(F)cnc1Cl` [Compound 50, (R)-1-(2-chloro-5-fluoropyridin-3-yl)ethyl (4-(5-((2-cyanopyridin-4-yl)carbamoyl)-pyridin-2-yl)-1-methyl-1H-1,2,3-triazol-5-yl)-carbamate], the concentration for a half-maximal effect (EC50) was determined as 8.7 nM.

For `C[C@@H](OC(=O)Nc1c(-c2ccc(C(=O)Nc3cc(Cl)nc(Cl)c3)cn2)nnn1C)c1cc(F)cnc1Cl` [Compound 51, (R)-1-(2-chloro-5-fluoropyridin-3-yl)ethyl (4-(5-((2,6-dichloro-pyridin-4-yl)-carbamoyl)pyridin-2-yl)-1-methyl-1H-1,2,3-triazol-5-yl)carbamate], the EC50 is less than 4.6 nM.

On to `C[C@@H](OC(=O)Nc1c(-c2ccc(C(=O)Nc3nc(C(F)(F)F)co3)cn2)nnn1C)c1cc(F)cnc1Cl` [Compound 52], for which the concentration for a half-maximal effect (EC50) is 281 nM.

With `C[C@@H](OC(=O)Nc1c(-c2ccc(C(=O)Nc3ncc(C(F)(F)F)s3)cn2)nnn1C)c1cc(F)cnc1Cl` [Compound 53, (R)-1-(2-chloro-5-fluoropyridin-3-yl)ethyl (1-methyl-4-(5-((5-(trifluoro-methyl)thiazol-2-yl)carbamoyl)-pyridin-2-yl)-1H-1,2,3-triazol-5-yl)carbamate], the 50% effective concentration (EC50) is 19.4 nM.

As for `C#CC12CC(NC(=O)c3ccc(-c4nnn(C)c4NC(=O)O[C@H](C)c4cc(F)cnc4Cl)nc3)(C1)C2` [Compound 54, (R)-1-(2-chloro-5-fluoropyridin-3-yl)ethyl (4-(5-((3-ethynylbicyclo-[1.1.1]pentan-1-yl)carbamoyl)-pyridin-2-yl)-1-methyl-1H-1,2,3-triazol-5-yl)-carbamate], the EC50 is less than 4.6 nM.

Turning to `C[C@@H](OC(=O)Nc1c(-c2ccc(C(=O)NC34CC(Cl)(C3)C4)cn2)nnn1C)c1cccnc1F` [Compound 55, (R)-1-(2-fluoropyridin-3-yl)ethyl (4-(5-((3-chlorobicyclo[1.1.1]pentan-1-yl)carbamoyl)pyridin-2-yl)-1-methyl-1H-1,2,3-triazol-5-yl)carbamate], the EC50 turned out to be 58.1 nM.

Regarding `C[C@@H](OC(=O)Nc1c(-c2ccc(C(=O)NC34CC(C(F)(F)F)(C3)C4)cn2)nnn1C)c1cccnc1F` [Compound 56, (R)-1-(2-fluoropyridin-3-yl)ethyl (1-methyl-4-(5-((3-(trifluoro-methyl)bicyclo[1.1.1]-pentan-1-yl)carbamoyl)-pyridin-2-yl)-1H-1,2,3-triazol-5-yl)carbamate], the concentration giving a half-maximal response (EC50) came out at 139 nM.

Take `C[C@@H](OC(=O)Nc1c(-c2ccc(C(=O)NC34CC(F)(C3)C4)cn2)nnn1C)c1cccnc1F` [Compound 57, (R)-1-(2-fluoropyridin-3-ylethyl (4-(5-((3-fluorobicyclo[1.1.1]-pentan-1-yl)carbamoyl)-pyridin-2-yl)-1-methyl-1H-1,2,3-triazol-5-yl)-carbamate]: the concentration giving a half-maximal response (EC50) came out at 717 nM.

As for `Cc1nc(-c2nnn(C)c2NC(=O)O[C@H](C)c2cccnc2Cl)ccc1C(=O)NC12CC(Cl)(C1)C2` [Compound 58, (R)-1-(2-chloropyridin-3-yl)ethyl (4-(5-((3-chlorobicyclo[1.1.1]pentan-1-yl)carbamoyl)-6-methylpyridin-2-yl)-1-methyl-1H-1,2,3-triazol-5-yl)carbamate], the EC50 was determined as 48.3 nM.

Turning to `C[C@@H](OC(=O)Nc1c(-c2ncc(C(=O)NC34CC(C#N)(C3)C4)cc2F)nnn1C)c1cccnc1Cl` [Compound 59, (R)-1-(2-chloropyridin-3-yl)ethyl (4-(5-((3-cyanobicyclo[1.1.1]pentan-1-yl)carbamoyl)-3-fluoropyridin-2-yl)-1-methyl-1H-1,2,3-triazol-5-yl)carbamate], the concentration for a half-maximal effect (EC50) is 23.2 nM.

As to `C[C@@H](OC(=O)Nc1c(-c2ccc(C(=O)NC34CC(F)(C3)C4)c(Cl)n2)nnn1C)c1cccnc1Cl` [Compound 60, (R)-1-(2-chloropyridin-3-yl)ethyl (4-(6-chloro-5-((3-fluorobicyclo[1.1.1]pentan-1-yl)carbamoyl)pyridin-2-yl)-1-methyl-1H-1,2,3-triazol-5-yl)carbamate], the EC50 turned out to be 93.4 nM.

As to `C[C@@H](OC(=O)Nc1c(-c2cc(F)c(C(=O)NC34CC(C#N)(C3)C4)cn2)nnn1C)c1cccnc1Cl` [Compound 61, (R)-1-(2-chloropyridin-3-yl)ethyl (4-(5-((3-cyanobicyclo[1.1.1]pentan-1-yl)carbamoyl)-4-fluoropyridin-2-yl)-1-methyl-1H-1,2,3-triazol-5-yl)carbamate], the EC50 was determined as 233 nM.
